According to ChEMBL document CHEMBL1130734, “Design and synthesis of a biotinylated dopamine transporter ligand for the purification and labeling of dopaminergic neurons” (Bioorg Med Chem Lett, 1998):

Biological target: Sodium-dependent noradrenaline transporter (Homo sapiens, UniProt P23975)
Assay: Compound was tested for its ability to inhibit the uptake of Norepinephrine in Norepinephrine transporter system
Format: functional

Sequence of Sodium-dependent noradrenaline transporter (P23975 whole entry): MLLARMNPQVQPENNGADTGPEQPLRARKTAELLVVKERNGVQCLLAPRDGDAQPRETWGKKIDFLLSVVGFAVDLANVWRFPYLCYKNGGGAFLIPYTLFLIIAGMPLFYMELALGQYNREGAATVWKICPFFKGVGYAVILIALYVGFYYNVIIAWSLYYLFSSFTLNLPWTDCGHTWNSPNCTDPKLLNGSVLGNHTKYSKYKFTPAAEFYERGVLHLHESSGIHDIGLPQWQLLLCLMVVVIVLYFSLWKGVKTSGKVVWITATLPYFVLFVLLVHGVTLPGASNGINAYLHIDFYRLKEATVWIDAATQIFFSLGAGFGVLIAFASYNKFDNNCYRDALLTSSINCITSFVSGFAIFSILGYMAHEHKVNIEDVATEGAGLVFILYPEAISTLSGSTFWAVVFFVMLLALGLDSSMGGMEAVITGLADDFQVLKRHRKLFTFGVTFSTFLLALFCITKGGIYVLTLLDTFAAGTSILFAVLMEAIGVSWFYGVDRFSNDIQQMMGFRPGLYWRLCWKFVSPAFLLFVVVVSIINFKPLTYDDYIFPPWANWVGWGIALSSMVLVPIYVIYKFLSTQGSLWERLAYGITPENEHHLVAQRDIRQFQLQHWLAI

## c1ccc(CCCN2CCN(CCOC(c3ccccc3)c3ccccc3)CC2)cc1
  IC50: 1260 nM
